Laboratory results reported in article PMC7066280 (Investigational New Drugs, 2019).
Read-outs that look alike come from different tables or passages of the source.

Legend:
[1] = Ivosidenib plasma PK after single and multiple 500 mg QD doses (dose expansion); format: in vivo, human; settings: for Cmax / AUC(0-t) / Tmax: human, plasma, oral, 500 mg
Protocol: (§1) Additional predose samples were taken on cycle 1, day 8; cycle 1, day 15; cycle 3, day 1; and end of treatment.
(§2) Plasma ivosidenib was measured using two validated liquid chromatography-tandem mass spectrometry (LC-MS/MS) methods. The lower limit of quantification (LLOQ) was 1.00 ng/mL (low-range assay) or 50.0 ng/mL (high-range assay). […] Plasma 2-HG concentrations were measured using a qualified LC-MS/MS method with an LLOQ of 30.0 ng/mL. Concentrations of 2-HG in tumor biopsy samples were quantified using qualified LC-MS/MS methods with an LLOQ of 7.5 μg/g for brain tumor homogenate, 100 ng/g for liver tumor homogenate (low-range assay), and 30 μg/g for liver tumor homogenate (high-range assay). Plasma 4β-OHC and cholesterol were measured using a validated LC-MS/MS method. The LLOQ was 5 ng/mL for 4β-OHC and 25 μg/mL for cholesterol in human plasma.
(§3) PK parameters included area under the plasma concentration-time curve (AUC), maximum plasma concentration (Cmax), time to maximum plasma concentration (Tmax), terminal elimination half-life (t1/2), and apparent oral clearance at steady state (CLss/F). Accumulation ratio (Racc), based on Cmax and AUC, was also assessed during the dose escalation portion. PD (2-HG) parameters included baseline-effect value, area under the effect concentration-time curve (AUEC0-10h for the dose escalation portion, or AUEC0-8h for the dose escalation and expansion portions), percent change from baseline in AUEC (%BAUEC0-10h for the escalation portion, or %BAUEC0-8h for the dose escalation and expansion portions), average plasma concentration (Cavg), and percent inhibition for Cavg (%BCavg). For the dose escalation portion, the time-matched ratios of 4β-OHC to cholesterol were calculated.

[2] = tested on: plasma 2-HG; experiment: Plasma 2-HG pharmacodynamics in patients with IDH1-mutant tumors; format: in vivo, human
Protocol: These samples were optional for any further patients enrolled in these cohorts. Further blood samples were collected from all patients up to 10 h postdose on cycle 1, day 15 and cycle 2, day 1. A subset of samples was also used for evaluation of plasma 4β-hydroxycholesterol (4β-OHC) and 4β-OHC:cholesterol ratios. Blood samples for assessment of 2-HG only were also collected at screening.
as §1, §2, §3

[3] = set-up: method as in Agios data on file; settings: ref Agios data on file; cited from earlier work

## N#Cc1ccnc(N2C(=O)CC[C@H]2C(=O)N(c2cncc(F)c2)[C@H](C(=O)NC2CC(F)(F)C2)c2ccccc2Cl)c1 [ivosidenib]
[1]
  Cmax at steady state lower in glioma than in cholangiocarcinoma/chondrosarcoma: ~29%
[1]; expansion cholangiocarcinoma, cycle 1 day 1, geometric mean (geometric CV%)
  Cmax: 3660 ng/mL
[1]; expansion cholangiocarcinoma, cycle 1 day 1, geometric mean (geometric CV%), read-out: AUC0-8hr
  AUC(0-t): 19700 ng·h/mL
[1]; expansion cholangiocarcinoma, cycle 1 day 1, median (minimum; maximum)
  Tmax: 3.08 h
[1]; expansion cholangiocarcinoma, cycle 2 day 1, geometric mean (geometric CV%)
  Cmax: 4580 ng/mL
[1]; expansion cholangiocarcinoma, cycle 2 day 1, geometric mean (geometric CV%), read-out: AUC0-8hr
  AUC(0-t): 29000 ng·h/mL
[1]; expansion cholangiocarcinoma, cycle 2 day 1, geometric mean (geometric CV%), read-out: AUC0-24hr
  AUC(0-t): 75600 ng·h/mL
[1]; expansion cholangiocarcinoma, cycle 2 day 1, median (minimum; maximum)
  Tmax: 2.03 h
[1]; expansion chondrosarcoma, cycle 1 day 1, geometric mean (geometric CV%)
  Cmax: 4260 ng/mL
[1]; expansion chondrosarcoma, cycle 1 day 1, geometric mean (geometric CV%), read-out: AUC0-8hr
  AUC(0-t): 22900 ng·h/mL
[1]; expansion chondrosarcoma, cycle 1 day 1, median (minimum; maximum)
  Tmax: 2.98 h
[1]; expansion chondrosarcoma, cycle 2 day 1, geometric mean (geometric CV%)
  Cmax: 5300 ng/mL
[1]; expansion chondrosarcoma, cycle 2 day 1, geometric mean (geometric CV%), read-out: AUC0-8hr
  AUC(0-t): 36200 ng·h/mL
[1]; expansion chondrosarcoma, cycle 2 day 1, geometric mean (geometric CV%), read-out: AUC0-24hr
  AUC(0-t): 88700 ng·h/mL
[1]; expansion chondrosarcoma, cycle 2 day 1, median (minimum; maximum)
  Tmax: 2.08 h
[1]; expansion enhancing glioma, cycle 1 day 1, geometric mean (geometric CV%)
  Cmax: 3140 ng/mL
[1]; expansion enhancing glioma, cycle 1 day 1, geometric mean (geometric CV%), read-out: AUC0-8hr
  AUC(0-t): 16000 ng·h/mL
[1]; expansion enhancing glioma, cycle 1 day 1, median (minimum; maximum)
  Tmax: 3.01 h
[1]; expansion enhancing glioma, cycle 2 day 1, geometric mean (geometric CV%)
  Cmax: 3800 ng/mL
[1]; expansion enhancing glioma, cycle 2 day 1, geometric mean (geometric CV%), read-out: AUC0-8hr
  AUC(0-t): 24400 ng·h/mL
[1]; expansion enhancing glioma, cycle 2 day 1, geometric mean (geometric CV%), read-out: AUC0-24hr
  AUC(0-t): 62600 ng·h/mL
[1]; expansion enhancing glioma, cycle 2 day 1, median (minimum; maximum)
  Tmax: 2.03 h
[1]; expansion non-enhancing glioma, cycle 1 day 1, geometric mean (geometric CV%)
  Cmax: 2790 ng/mL
[1]; expansion non-enhancing glioma, cycle 1 day 1, geometric mean (geometric CV%), read-out: AUC0-8hr
  AUC(0-t): 14900 ng·h/mL
[1]; expansion non-enhancing glioma, cycle 1 day 1, median (minimum; maximum)
  Tmax: 2.58 h
[1]; expansion non-enhancing glioma, cycle 2 day 1, geometric mean (geometric CV%)
  Cmax: 3540 ng/mL
[1]; expansion non-enhancing glioma, cycle 2 day 1, geometric mean (geometric CV%), read-out: AUC0-8hr
  AUC(0-t): 22200 ng·h/mL
[1]; expansion non-enhancing glioma, cycle 2 day 1, geometric mean (geometric CV%), read-out: AUC0-24hr
  AUC(0-t): 55700 ng·h/mL
[1]; expansion non-enhancing glioma, cycle 2 day 1, median (minimum; maximum)
  Tmax: 3.05 h
[1]; expansion other solid tumors, cycle 1 day 1, geometric mean (geometric CV%)
  Cmax: 2290 ng/mL
[1]; expansion other solid tumors, cycle 1 day 1, geometric mean (geometric CV%), read-out: AUC0-8hr
  AUC(0-t): 13800 ng·h/mL
[1]; expansion other solid tumors, cycle 1 day 1, median (minimum; maximum)
  Tmax: 2.55 h
[1]; expansion other solid tumors, cycle 2 day 1, geometric mean (geometric CV%)
  Cmax: 4130 ng/mL
[1]; expansion other solid tumors, cycle 2 day 1, geometric mean (geometric CV%), read-out: AUC0-8hr
  AUC(0-t): 25100 ng·h/mL
[1]; expansion other solid tumors, cycle 2 day 1, geometric mean (geometric CV%), read-out: AUC0-24hr
  AUC(0-t): 62200 ng·h/mL
[1]; expansion other solid tumors, cycle 2 day 1, median (minimum; maximum)
  Tmax: 1.98 h
[1]; expansion overall, cycle 1 day 1, geometric mean (geometric CV%)
  Cmax: 3310 ng/mL
[1]; expansion overall, cycle 1 day 1, geometric mean (geometric CV%), read-out: AUC0-8hr
  AUC(0-t): 17600 ng·h/mL
[1]; expansion overall, cycle 1 day 1, median (minimum; maximum)
  Tmax: 3 h
[1]; expansion overall, cycle 2 day 1, geometric mean (geometric CV%)
  Cmax: 4210 ng/mL
[1]; expansion overall, cycle 2 day 1, geometric mean (geometric CV%), read-out: AUC0-8hr
  AUC(0-t): 26600 ng·h/mL
[1]; expansion overall, cycle 2 day 1, geometric mean (geometric CV%), read-out: AUC0-24hr
  AUC(0-t): 68500 ng·h/mL
[1]; expansion overall, cycle 2 day 1, median (minimum; maximum)
  Tmax: 2.14 h
[2]; after multiple doses, patients with cholangiocarcinoma or chondrosarcoma
  plasma 2-HG reduction: up to 98%
[2]; after one week of continuous dosing, cholangiocarcinoma and chondrosarcoma
  plasma 2-HG inhibition compared with baseline: up to 98%
[2]; cholangiocarcinoma, 500 mg multiple dose, cycle 1 day 15
  plasma 2-HG mean Cavg percent inhibition (BCavg%): 79%
[2]; cholangiocarcinoma, 500 mg multiple dose, cycle 2 day 1
  plasma 2-HG mean Cavg percent inhibition (BCavg%): 80%
[2]; cholangiocarcinoma, single dose, 500 mg
  plasma 2-HG mean Cavg percent inhibition (BCavg%): 46%
[2]; chondrosarcoma, 500 mg multiple dose, cycle 1 day 15
  plasma 2-HG mean Cavg percent inhibition (BCavg%): 54%
[2]; chondrosarcoma, 500 mg multiple dose, cycle 2 day 1
  plasma 2-HG mean Cavg percent inhibition (BCavg%): 59%
[2]; chondrosarcoma, single dose, 500 mg
  plasma 2-HG mean Cavg percent inhibition (BCavg%): 30%
[3]
  FDA Biopharmaceutical Classification System class: BCS Class II
  permeability (BCS): high permeability
